Data: ChEMBL document CHEMBL4715875, “Evaluation of the in Vivo Aphrodisiac Activity of a Cyclotide Extract from Hybanthus enneaspermus” (2020)
Positions of bridges follow the written chain, without caps; N, C: chain ends. Residues, ends and D or L forms follow the SMILES beside them.

How the values were obtained:
Type in all cases: functional
Rattus norvegicus [1] = experiment: Induction of libido-enhancing activity in Wistar rat assessed as number of intromission at 5 mg/kg, po pre-treated for 30 mins followed by female rat introduction and measured up to 2 hrs (reference value: 76 +/- 11); conditions: time hrs <=2.5
Rattus norvegicus [2] = experiment: Induction of libido-enhancing activity in Wistar rat assessed as number of intromission at 5 mg/kg, po pre-treated for 30 mins followed by female rat introduction and measured up to 1 hr (reference value: 63 +/- 7.7); conditions: time hrs <=1.5
Rattus norvegicus [3] = experiment: Induction of libido-enhancing activity in Wistar rat assessed as total number of mount at 5 mg/kg, po pre-treated for 30 mins followed by female rat introduction (reference value: 3.9 +/- 1.2); conditions: 0.5 h
Rattus norvegicus [4] = experiment: Induction of libido-enhancing activity in Wistar rat assessed as number of mount at 5 mg/kg, po pre-treated for 30 mins followed by female rat introduction and measured up to 3 hrs (reference value: 3.9 +/- 1.2); conditions: time hrs <=3.5
Rattus norvegicus [5] = experiment: Induction of libido-enhancing activity in Wistar rat assessed as number of mount at 5 mg/kg, po pre-treated for 30 mins followed by female rat introduction and measured up to 2 hrs (reference value: 9.1 +/- 3); conditions: time hrs <=2.5
Rattus norvegicus [6] = experiment: Induction of libido-enhancing activity in Wistar rat assessed as number of mount at 5 mg/kg, po pre-treated for 30 mins followed by female rat introduction and measured up to 1 hr (reference value: 16 +/- 6.9); conditions: time hrs <=1.5
Rattus norvegicus [7] = experiment: Induction of libido-enhancing activity in Wistar rat assessed as copulatory plugs at 5 mg/kg, po pre-treated for 30 mins followed by female rat introduction and measured up to 3 hrs (reference value: 4.2 +/- 0.6 sec); conditions: time min <=210
Rattus norvegicus [8] = experiment: Induction of libido-enhancing activity in Wistar rat assessed as ejaculation post interval time at 5 mg/kg, po pre-treated for 30 mins followed by female rat introduction and measured up to 3 hrs (reference value: 760 +/- 50 sec); conditions: time min <=210
Rattus norvegicus [9] = experiment: Induction of libido-enhancing activity in Wistar rat assessed as ejaculation latency latency time at 5 mg/kg, po pre-treated for 30 mins followed by female rat introduction and measured up to 3 hrs (reference value: 1300 +/- 320 sec); conditions: time min <=210
Rattus norvegicus [10] = experiment: Induction of libido-enhancing activity in Wistar rat assessed as intromission ratio at 5 mg/kg, po pre-treated for 30 mins followed by female rat introduction and measured up to 3 hrs (reference value: 86 +/- 4.1%); conditions: time min <=210
Rattus norvegicus [11] = experiment: Induction of libido-enhancing activity in Wistar rat assessed as mount frequency at 5 mg/kg, po pre-treated for 30 mins followed by female rat introduction and measured up to 3 hrs (reference value: 5.8 +/- 2.1); conditions: time min <=210
Rattus norvegicus [12] = experiment: Induction of libido-enhancing activity in Wistar rat assessed as intromission frequency at 5 mg/kg, po pre-treated for 30 mins followed by female rat introduction and measured up to 3 hrs (reference value: 35 +/- 5); conditions: time min <=210
Rattus norvegicus [13] = experiment: Induction of libido-enhancing activity in Wistar rat assessed as intromission latency time at 5 mg/kg, po pre-treated for 30 mins followed by female rat introduction and measured up to 3 hrs (reference value: 270 +/- 68 sec); conditions: time min <=210
Rattus norvegicus [14] = experiment: Induction of libido-enhancing activity in Wistar rat assessed as first behavior latency time at 5 mg/kg, po pre-treated for 30 mins followed by female rat introduction and measured up to 3 hrs (reference value: 200 +/- 40 sec); conditions: time min <=210
Rattus norvegicus [15] = experiment: Induction of libido-enhancing activity in Wistar rat assessed as number of intromission at 5 mg/kg, po pre-treated for 30 mins followed by female rat introduction and measured up to 3 hrs (reference value: 49 +/- 8.5); conditions: time hrs <=3.5
Rattus norvegicus [16] = experiment: Induction of libido-enhancing activity in Wistar rat assessed as number of intromission at 5 mg/kg, po pre-treated for 30 mins followed by female rat introduction (reference value: 170 +/- 32); conditions: 0.5 h
Rattus norvegicus [17] = experiment: Induction of libido-enhancing activity in Wistar rat assessed as number of ejaculations at 5 mg/kg, po pre-treated for 30 mins followed by female rat introduction and measured up to 1 hr (reference value: 2.2 +/- 0.4); conditions: time hrs <=1.5
Rattus norvegicus [18] = experiment: Induction of libido-enhancing activity in Wistar rat assessed as number of ejaculations at 5 mg/kg, po pre-treated for 30 mins followed by female rat introduction and measured up to 2 hrs (reference value: 2.2 +/- 0.3); conditions: time hrs <=2.5
Rattus norvegicus [19] = experiment: Induction of libido-enhancing activity in Wistar rat assessed as number of ejaculations at 5 mg/kg, po pre-treated for 30 mins followed by female rat introduction and measured up to 3 hrs (reference value: 1.2 +/- 0.3); conditions: time hrs <=3.5
Rattus norvegicus [20] = experiment: Induction of libido-enhancing activity in Wistar rat assessed as number of ejaculations at 5 mg/kg, po pre-treated for 30 mins followed by female rat introduction (reference value: 5.5 +/- 0.6); conditions: 0.5 h

Row | Structure (SMILES) | Activity (Rattus norvegicus [1]) | Activity (Rattus norvegicus [2]) | Activity (Rattus norvegicus [3]) | Activity (Rattus norvegicus [4]) | Activity (Rattus norvegicus [5]) | Activity (Rattus norvegicus [6]) | Activity (Rattus norvegicus [7]) | Time (Rattus norvegicus [8]) [s] | Time (Rattus norvegicus [9]) [s] | Activity (Rattus norvegicus [10]) [%] | Activity (Rattus norvegicus [11]) | Activity (Rattus norvegicus [12]) | Time (Rattus norvegicus [13]) [s] | Time (Rattus norvegicus [14]) [s] | Activity (Rattus norvegicus [15]) | Activity (Rattus norvegicus [16]) | Activity (Rattus norvegicus [17]) | Activity (Rattus norvegicus [18]) | Activity (Rattus norvegicus [19]) | Activity (Rattus norvegicus [20])
1 | CC(=O)CC(O)(CC(C)=O)C(C)=O.CCCc1nn(C)c2c(=O)nc(-c3cc(S(=O)(=O)N4CCN(C)CC4)ccc3OCC)[nH]c12 | 63 | 65 | 26 | 2.3 | 6.7 | 8.3 | 6 | 860 | 940 | 85 | 4.7 | 23 | 96 | 96 | 38 | 180 | 2 | 2.8 | 2.2 | 7.7
2 | CC[C@H](C)[C@@H]1NC(=O)[C@H](C)NC(=O)[C@H](C)NC(=O)[C@H]([C@@H](C)O)NC(=O)[C@H](Cc2ccccc2)NC(=O)[C@@H]2CSSC[C@@H](C(=O)N[C@@H](Cc3ccc(O)cc3)C(=O)N[C@@H](CCCCN)C(=O)N[C@@H](CC(N)=O)C(=O)O)NC(=O)[C@H](C(C)C)NC(=O)[C@H](CCCCN)NC(=O)[C@H](CO)NC(=O)[C@H](CCCCN)NC(=O)[C@@H]3CSSC[C@H](NC(=O)[C@H](CO)NC(=O)[C@H](CCC(=O)O)NC(=O)CNC(=O)[C@@H](NC(=O)[C@@H]4CCCN4C(=O)[C@H](Cc4ccccc4)NC(=O)CN)CSSC[C@H](NC(=O)CNC1=O)C(=O)N[C@@H](CO)C(=O)N3)C(=O)N[C@@H](C(C)C)C(=O)N[C@@H](Cc1ccc(O)cc1)C(=O)N[C@@H]([C@@H](C)CC)C(=O)N1CCC[C@H]1C(=O)N2 (H-GFPCGESCVYIPCFTAAIGCSCKSKVCYKN-OH; disulfide 4-20, 8-22, 13-27) | 67 | 69 | 19 | 9.7 | 5.8 | 3.2 | 5.5 | 690 | 1000 | 91 | 3.1 | 28 | 78 | 76 | 44 | 180 | 1.5 | 3 | 2 | 6.5
